Assay results from US8299048B2, “Hexahydrocyclopentyl[f]indazole sulfonamides and derivatives thereof as selective glucocorticoid receptor modulators” (Merck Sharp & Dohme Corp., priority 2008, dated 2012).

Molecular target: T1, human GR (Homo sapiens, UniProt P04150)
T1 sequence (P04150 1-777): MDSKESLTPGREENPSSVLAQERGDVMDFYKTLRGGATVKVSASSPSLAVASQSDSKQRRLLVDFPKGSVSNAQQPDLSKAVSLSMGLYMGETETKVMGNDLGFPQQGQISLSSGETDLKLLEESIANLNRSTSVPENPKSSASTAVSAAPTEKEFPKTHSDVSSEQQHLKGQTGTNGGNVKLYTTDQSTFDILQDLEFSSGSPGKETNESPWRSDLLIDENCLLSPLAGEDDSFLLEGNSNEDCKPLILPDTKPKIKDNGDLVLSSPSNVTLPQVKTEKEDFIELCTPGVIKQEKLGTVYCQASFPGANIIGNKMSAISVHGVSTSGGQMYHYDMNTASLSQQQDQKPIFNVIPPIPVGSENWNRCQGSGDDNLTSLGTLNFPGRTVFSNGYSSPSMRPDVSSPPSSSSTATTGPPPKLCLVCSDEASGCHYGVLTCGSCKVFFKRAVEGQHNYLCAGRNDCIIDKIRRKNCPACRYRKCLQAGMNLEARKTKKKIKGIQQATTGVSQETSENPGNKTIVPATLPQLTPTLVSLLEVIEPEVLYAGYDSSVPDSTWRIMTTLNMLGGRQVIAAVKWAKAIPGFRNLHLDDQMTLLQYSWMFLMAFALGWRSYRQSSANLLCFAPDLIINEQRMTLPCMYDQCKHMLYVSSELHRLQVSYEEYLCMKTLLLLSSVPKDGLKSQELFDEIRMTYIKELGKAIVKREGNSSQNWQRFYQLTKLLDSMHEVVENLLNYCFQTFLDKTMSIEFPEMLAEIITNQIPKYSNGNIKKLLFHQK
Test: Trans-Activation Modulation of Glucocorticoid Receptor (GRAMMER), MMTV-LUC reporter, agonist mode
Assay type: cell-based
Design: endogenous in cells
Details: for Emax: A549, A549 cells, maximum activity, read-out: Transactivation A549 Cells GRAMMER Emax; for EC50: A549 cells, inflection point, read-out: Transactivation A549 Cells GRAMMER IP
Outline: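 Readout is luciferase from a modified MMTV LTR promoter after 24 h compound exposure alongside 10 nM dexamethasone (100% activity reference), DMSO ≤1%.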

Row | SMILES | Emax [%] | EC50 [nM]
1 | COc1cccc(CCN(C[C@H]2CCC3=Cc4c(cnn4-c4ccc(F)cc4)C[C@@]32C)S(=O)(=O)CC(F)(F)F)c1 [Example 126, 2,2,2-trifluoro-N-{[(4αR,5S)-1-(4-fluorophenyl)-4α-methyl-1,4,4α,5,6,7-hexahydrocyclopenta[f]indazol-5-yl]methyl}-N-[2-(3-methoxyphenyl)ethyl]ethanesulfonamide] | 78.2 | 227
2 | C[C@]12Cc3cnn(-c4ccc(F)cc4)c3C=C1CC[C@@H]2CN(CC(OS(=O)(=O)CC(F)(F)F)C(F)F)S(=O)(=O)CC(F)(F)F (stereo partly drawn) [Example 134, 2,2-difluoro-1-({{[(4αR,5S)-1-(4-fluorophenyl)-4α-methyl-1,4,4α,5,6,7-hexahydrocyclopenta[f]indazol-5-yl]methyl}[(2,2,2-trifluoroethyl)sulfonyl]amino}methyl)ethyl 2,2,2-trifluoroethanesulfonate] | 89.2 | 216
3 | C[C@]12Cc3cnn(-c4ccc(F)cc4)c3C=C1CC[C@@H]2CN(CC1CC1)S(=O)(=O)c1cc(C(F)(F)F)ccc1Cl [Example 5, 2-chloro-N-(cyclopropylmethyl)-N-{[(4αR,5S)-1-(4-fluorophenyl)-4α-methyl-1,4,4α,5,6,7-hexahydrocyclopenta[f]indazol-5-yl]methyl}-5-(trifluoromethyl)benzenesulfonamide] | 2.9 | 422

Next, values leading:

Row | Emax [%] | EC50 [nM] | SMILES
4 | 70.4 | 559 | CCCS(=O)(=O)N(CCOC)C[C@H]1CCC2=Cc3c(cnn3-c3ccc(F)cc3)C[C@@]21C [Example 95, N-{[(4αR,5S)-1-(4-fluorophenyl)-4α-methyl-1,4,4α,5,6,7-hexahydrocyclopenta[f]indazol-5-yl]methyl}-N-(2-methoxyethyl)propane-1-sulfonamide]
5 | 65.7 | 152 | COCCN(C[C@H]1CCC2=Cc3c(cnn3-c3ccc(F)cc3)C[C@@]21C)S(C)(=O)=O [Example 96, N-{[(4αR,5S)-1-(4-fluorophenyl)-4α-methyl-1,4,4α,5,6,7-hexahydrocyclopenta[f]indazol-5-yl]methyl}-N-(2-methoxyethyl)methanesulfonamide]
